What all share (assay type): cell-based
Assay [1] deals with T1, m4 muscarinic receptor subtype (Homo sapiens, UniProt P08173).
T1 construct: expressed in transfected cells; host or cells: NIH-3T3 (ATCC CRL 1658)
T1 sequence (P08173 1-479): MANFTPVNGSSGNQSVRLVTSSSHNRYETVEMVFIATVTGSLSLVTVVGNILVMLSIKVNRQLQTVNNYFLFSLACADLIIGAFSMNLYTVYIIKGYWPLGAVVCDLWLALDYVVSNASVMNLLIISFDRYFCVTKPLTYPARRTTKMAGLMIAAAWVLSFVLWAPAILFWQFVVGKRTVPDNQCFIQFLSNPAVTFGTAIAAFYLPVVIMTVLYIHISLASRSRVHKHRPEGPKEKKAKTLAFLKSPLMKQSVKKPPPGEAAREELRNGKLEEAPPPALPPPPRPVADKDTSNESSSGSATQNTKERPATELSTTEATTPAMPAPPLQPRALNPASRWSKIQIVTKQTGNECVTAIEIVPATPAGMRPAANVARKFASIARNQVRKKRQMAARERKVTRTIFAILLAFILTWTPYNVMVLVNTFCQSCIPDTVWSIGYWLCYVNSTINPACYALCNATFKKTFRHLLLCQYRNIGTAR
The experiment in a line: R-SAT assay, muscarinic receptor subtype m4. Conditions: transfected NIH-3T3 cells, 5 days; for m4 % Eff: relative to maximum response to carbachol; for EC50: read-out: m4 pEC50 (converted). On the procedure:
(§1) Transfected cells were grown in the presence of between 1 nM and 40 μM of the test compound for 5 days. On day 5, the cells were lysed using 0.5% Nonidet-P and β-galactosidase expression was quantified using the chromogenic substrate o-nitrophenyl-β-D-galactoside (ONGP).
(§2) Data were normalized relative to the maximum response of the cells to the muscarinic agonist carbachol, and the following equation was fitted to the data: • response=minimum+(maximum−minimum)/(1+(EC50/[ligand])) • Where [ligand]=ligand concentration. • % Efficacy was defined as: • (maximum−minimum)/(maximum response of cells to carbachol). • pEC50=−log (EC50). • Where data gave a bell-shaped curve, “maximum” was defined as the highest observed response.

In assay [2] the target is T2, m1 muscarinic receptor subtype (Homo sapiens, UniProt P11229).
T2 construct: expressed in transfected cells; host or cells: NIH-3T3 (ATCC CRL 1658)
T2 sequence (P11229 1-460): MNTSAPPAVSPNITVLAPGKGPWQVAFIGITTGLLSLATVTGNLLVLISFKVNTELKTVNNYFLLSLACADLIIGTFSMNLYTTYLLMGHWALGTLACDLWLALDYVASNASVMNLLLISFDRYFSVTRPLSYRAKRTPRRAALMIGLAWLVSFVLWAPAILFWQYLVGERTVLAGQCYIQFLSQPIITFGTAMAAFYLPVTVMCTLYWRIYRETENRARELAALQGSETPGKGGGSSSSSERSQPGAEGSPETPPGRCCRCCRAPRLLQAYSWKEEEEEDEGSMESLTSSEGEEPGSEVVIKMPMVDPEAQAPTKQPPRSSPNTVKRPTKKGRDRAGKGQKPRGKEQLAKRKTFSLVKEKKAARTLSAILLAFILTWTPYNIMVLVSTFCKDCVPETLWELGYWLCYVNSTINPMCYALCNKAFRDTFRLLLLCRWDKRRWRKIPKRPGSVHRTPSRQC
As to the kind of experiment: R-SAT assay, muscarinic receptor subtype m1. Conditions: transfected NIH-3T3 cells, 5 days; for m1 % Eff: relative to maximum response to carbachol; for EC50: read-out: m1 pEC50 (converted). On the procedure: as §1, §2

Assay [3] concerns the target T3, m3 muscarinic receptor subtype (Homo sapiens, UniProt P20309).
T3 construct: expressed in transfected cells; host or cells: NIH-3T3 (ATCC CRL 1658)
As to the kind of experiment: R-SAT assay, muscarinic receptor subtype m3. Conditions: transfected NIH-3T3 cells, 5 days, relative to maximum response to carbachol. As to the method: (§3) Screening Of Test Compounds In An Assay Using Muscarinic Receptor Subtypes m1, m2, m3, m4 and m5. The m1, m2, m3, m4 and m5 muscarinic receptor subtypes were cloned substantially as described by Bonner et al., Science […] and Bonner et al., Neuron 1:403 (1988). R-SAT assays were carried out substantially as described in U.S. Pat. Nos. 5,707,798, 5,912,132, and 5,955,281, and by Braüner-Osborne & Brann, Eur. J. Pharmacol. 295:93 (1995). NIH-3T3 cells (available from the American Type Culture Collection as ATCC CRL 1658) were transfected with plasmid DNA encoding the m1, m2, m3, m4 or m5 receptors and plasmid DNA encoding β-galactosidase. Transfected cells were grown in the presence of between 1 nM and 40 μM of the test compound for 5 days. On day 5, the cells were lysed using 0.5% Nonidet-P and β-galactosidase expression was quantified using the chromogenic substrate o-nitrophenyl-β-D-galactoside (ONGP).
as §2

The target in assay [4] is T4, m2 muscarinic receptor subtype (Homo sapiens, UniProt P08172).
T4 construct: expressed in transfected cells; host or cells: NIH-3T3 (ATCC CRL 1658)
T4 sequence (P08172 1-466): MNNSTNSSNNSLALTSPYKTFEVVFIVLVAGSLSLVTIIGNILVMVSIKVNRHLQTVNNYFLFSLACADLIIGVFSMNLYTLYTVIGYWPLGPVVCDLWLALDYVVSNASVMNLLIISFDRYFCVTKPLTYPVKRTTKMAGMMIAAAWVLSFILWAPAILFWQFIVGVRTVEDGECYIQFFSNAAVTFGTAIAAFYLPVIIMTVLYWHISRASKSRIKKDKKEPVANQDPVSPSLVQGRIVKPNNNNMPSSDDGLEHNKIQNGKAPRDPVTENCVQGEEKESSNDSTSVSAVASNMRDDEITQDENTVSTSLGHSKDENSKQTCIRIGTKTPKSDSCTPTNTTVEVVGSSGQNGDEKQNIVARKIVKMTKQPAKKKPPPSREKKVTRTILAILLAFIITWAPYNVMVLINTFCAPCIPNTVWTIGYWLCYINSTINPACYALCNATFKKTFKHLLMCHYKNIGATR
As to the kind of experiment: R-SAT assay, muscarinic receptor subtype m2. Conditions: transfected NIH-3T3 cells, 5 days, relative to maximum response to carbachol. On the procedure: as §3, §2

The target of assay [5] is T5, m5 muscarinic receptor subtype (Homo sapiens, UniProt P08912).
T5 construct: expressed in transfected cells; host or cells: NIH-3T3 (ATCC CRL 1658)
T5 sequence (P08912 1-532): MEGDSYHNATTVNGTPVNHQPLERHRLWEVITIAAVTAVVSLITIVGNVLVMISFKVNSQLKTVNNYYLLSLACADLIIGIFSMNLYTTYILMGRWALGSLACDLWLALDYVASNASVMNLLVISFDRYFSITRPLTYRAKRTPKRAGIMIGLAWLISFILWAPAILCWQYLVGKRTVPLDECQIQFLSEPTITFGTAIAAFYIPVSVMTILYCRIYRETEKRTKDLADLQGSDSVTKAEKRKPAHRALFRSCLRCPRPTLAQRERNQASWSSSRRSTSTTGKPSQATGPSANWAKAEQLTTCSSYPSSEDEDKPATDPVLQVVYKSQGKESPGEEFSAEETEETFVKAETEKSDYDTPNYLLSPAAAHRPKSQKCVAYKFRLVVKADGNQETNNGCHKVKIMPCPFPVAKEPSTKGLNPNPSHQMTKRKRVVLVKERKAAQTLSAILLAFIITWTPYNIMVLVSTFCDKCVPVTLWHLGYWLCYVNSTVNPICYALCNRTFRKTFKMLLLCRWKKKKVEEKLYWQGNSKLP
As to the kind of experiment: R-SAT assay, muscarinic receptor subtype m5. The conditions noted are these: transfected NIH-3T3 cells, 5 days, relative to maximum response to carbachol. On the procedure: as §3, §2

T3 sequence (P20309 whole entry): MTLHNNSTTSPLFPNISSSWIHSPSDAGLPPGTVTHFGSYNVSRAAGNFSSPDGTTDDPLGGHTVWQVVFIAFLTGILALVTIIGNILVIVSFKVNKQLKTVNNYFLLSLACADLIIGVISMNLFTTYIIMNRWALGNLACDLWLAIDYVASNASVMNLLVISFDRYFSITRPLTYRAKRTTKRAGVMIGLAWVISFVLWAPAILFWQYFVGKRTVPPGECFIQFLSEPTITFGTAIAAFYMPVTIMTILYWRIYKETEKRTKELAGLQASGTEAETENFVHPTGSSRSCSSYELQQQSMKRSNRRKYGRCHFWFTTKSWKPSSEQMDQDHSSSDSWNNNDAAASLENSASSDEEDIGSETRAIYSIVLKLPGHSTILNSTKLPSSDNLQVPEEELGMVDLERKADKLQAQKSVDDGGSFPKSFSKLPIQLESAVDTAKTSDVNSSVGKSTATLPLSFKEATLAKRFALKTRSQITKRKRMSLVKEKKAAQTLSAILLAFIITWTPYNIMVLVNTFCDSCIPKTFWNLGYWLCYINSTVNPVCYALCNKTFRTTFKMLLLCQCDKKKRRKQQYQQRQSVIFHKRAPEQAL

For the molecule “1-[3-(4-Butyl-piperidin-1-yl)-propyl]-5,6-dimethyl-1H-benzoimidazole [Example 81]”, in assay [1], the “m4 pEC50” value is <5.5 and the “m4 % Eff” value is recorded as 77%. In assay [2], the “m1 pEC50” value is recorded as 6.4 and the “m1 % Eff” value is 72%.

Regarding “2-[3-(4-Butylpiperidin-1-yl)-propyl]-1-methyl-1H-benzimidazole [Example 73]”, the “m4 % Eff” value in assay [1] is listed as “no response (No response: Efficacy <25% maximum response of carbachol. This level of activity is not considered significantly different to no response.)”. In addition, in assay [2], the “m1 pEC50” value is on record as 6.2 and the “m1 % Eff” value worked out at 37%.

With “3-[3-(4-Butyl-piperidin-1-yl)-propyl]-benzo[d]isothiazole [Example 93]”, in assay [1], the “m4 pEC50” value is reported as 6.4 and the “m4 % Eff” value is reported as 58%. Besides, the “m3 % Eff” value in assay [3] is reported as “no response (No response: Efficacy <25% maximum response of carbachol. This level of activity is not considered significantly different to no response.)”. Moreover, in assay [2], the “m1 pEC50” value worked out at 7.1 and the “m1 % Eff” value was 83%. Besides, the “m2 % Eff” value in assay [4] is reported as “no response (No response: Efficacy <25% maximum response of carbachol. This level of activity is not considered significantly different to no response.)”. The “m5 % Eff” value in assay [5] is reported as “no response (No response: Efficacy <25% maximum response of carbachol. This level of activity is not considered significantly different to no response.)”.

On to `CCCCC1CCN(CCCn2ccc3ccccc32)CC1` [Example 12, 1-(3-(4-n-Butylpiperidine)-1-yl-propyl)-1H-indole], for which the “m3 % Eff” value in assay [3] is “no response (No response: Efficacy <25% maximum response of carbachol. This level of activity is not considered significantly different to no response.)”. Moreover, in assay [2], the “m1 pEC50” value was 5.9 and the “m1 % Eff” value stood at 59%. Moreover, the “m2 % Eff” value in assay [4] is recorded as “no response (No response: Efficacy <25% maximum response of carbachol. This level of activity is not considered significantly different to no response.)”. Also, the “m5 % Eff” value in assay [5] is listed as “no response (No response: Efficacy <25% maximum response of carbachol. This level of activity is not considered significantly different to no response.)”.

Turning to `CCCCC1CCN(CCCc2noc3ccccc23)CC1` [Example 24, 3-(3-(4-n-Butylpiperidine)-1-yl-propyl)-benzo[d]isoxazole], in assay [1], the EC50 was 501 nM and the “m4 % Eff” value amounted to 41%. In addition, the “m3 % Eff” value in assay [3] is reported as “no response (No response: Efficacy <25% maximum response of carbachol. This level of activity is not considered significantly different to no response.)”. Further, in assay [2], the EC50 is 126 nM and the “m1 % Eff” value is on record as 75%. The “m2 % Eff” value in assay [4] is “no response (No response: Efficacy <25% maximum response of carbachol. This level of activity is not considered significantly different to no response.)”. Also, the “m5 % Eff” value in assay [5] is “no response (No response: Efficacy <25% maximum response of carbachol. This level of activity is not considered significantly different to no response.)”.

In the case of `CCCCC1CCN(CCCc2nc3c([N+](=O)[O-])cccc3[nH]2)CC1` [Example 28, 4-Nitro-2-(3-(4-n-butylpiperidine)-1-yl-propyl)-1H-benzoimidazole], the “m4 % Eff” value in assay [1] is “no response (No response: Efficacy <25% maximum response of carbachol. This level of activity is not considered significantly different to no response.)”. Moreover, in assay [3], the “m3 % Eff” value was “no response (No response: Efficacy <25% maximum response of carbachol. This level of activity is not considered significantly different to no response.)”. Moreover, in assay [2], the “m1 pEC50” value is 6.5 and the “m1 % Eff” value is 38%. Moreover, in assay [5], the “m5 % Eff” value is recorded as “no response (No response: Efficacy <25% maximum response of carbachol. This level of activity is not considered significantly different to no response.)”.

As to `CC(C)CCC1CCN(CCCn2ncc3ccccc32)CC1` [Example 42, 1-(3-(4-(3-Methyl-butyl)-piperidine)-1-yl-propyl)-1H-indazole], in assay [2], the “m1 pEC50” value is 7.1 and the “m1 % Eff” value was determined as 51%.

As to `CCCCC=C1CCN(CCCn2ncc3ccccc32)CC1` [Example 43, 1-(3-(4-Pentylidene-piperidine)-1-yl-propyl)-1H-indazole], in assay [1], the EC50 was 1000 nM and the “m4 % Eff” value amounted to 30%. Moreover, in assay [2], the EC50 was 501 nM and the “m1 % Eff” value is listed as 66%. For the same molecule, the “m5 % Eff” value in assay [5] was “no response (No response: Efficacy <25% maximum response of carbachol. This level of activity is not considered significantly different to no response.)”.

As to `CCC=C1CCN(CCCn2ncc3ccccc32)CC1` [Example 44, 1-(3-(4-Propylidene-piperidine)-1-yl-propyl)-1H-indazole], in assay [2], the “m1 pEC50” value is given as 6.1 and the “m1 % Eff” value turned out to be 72%.

For the molecule `CCCCC1CCN(CCCn2nc(Cl)c3ccccc32)CC1` [Example 65, 1-[3-(4-Butylpiperidin-1-yl)-propyl]-3-chloro-1H-indazole], in assay [1], the “m4 pEC50” value was <5.5 and the “m4 % Eff” value came to 34%. Also, in assay [2], the “m1 pEC50” value was 6.0 and the “m1 % Eff” value is 45%. Besides, the “m2 % Eff” value in assay [4] is “no response (No response: Efficacy <25% maximum response of carbachol. This level of activity is not considered significantly different to no response.)”.

For `CCCCC1CCN(CCCn2c(C)cc3ccccc32)CC1` [Example 77, 1-[3-(4-Butyl-piperidin-1-yl)-propyl]-2-methyl-1H-indole], in assay [1], the “m4 pEC50” value is 6.3 and the “m4 % Eff” value was determined as 96%. Also, in assay [2], the “m1 pEC50” value is given as 7.0 and the “m1 % Eff” value is listed as 71%.
